Laboratory results published in patent US20170204197A1, “Goodpasture Antigen Binding Protein Detection and Inhibition and its Use in Diabetes” (FibroStatin, S.L., priority 2013, published 2017).

Assays:
A549 cells = test: Glucose uptake by A549 cells under increased extracellular glucose (FIG. 2B); format: cell-based; conditions: DMEM:F-12 (315 mg glucose/dL), increasing concentrations of T12, 14 h
Experimental: (§1) FIG. 2. […] A, A549 cells were cultured in DMEM plus 10% fetal bovine serum and penicillin/streptomycin with the indicated concentrations of glucose during 24 h. Then cells were lysed in 25 mM Tris-HCl pH 7.5, 150 mM NaCl, 1% Triton X-100, 0.1% SDS, 1 mM PMSF, 10 μg/mL leupeptin, 20 mM NaF at 4° C. during 30 min. Lysates were cleared by centrifugation at 16,000×g for 5 min (4° C.) and the protein concentration of supernatants was determined (Bio-Rad). […] Development was performed with Amersham ECL Prime Western Blotting Detection Reagent (GE Healthcare Lifesciences) and image acquisition with an ImageQuant LAS 4000 Mini device (GE Healthcare Lifesciences). […] After incubations cells were lysed as in A and protein concentrations in supernatants were similarly assessed. Glucose concentrations in the media were determined at the beginning and at the end of the incubation period with a Glucocard G+ meter (Arkray Factory, Inc.), and glucose uptake by cells was calculated using the protein concentrations of the corresponding lysates for normalization purposes.
(§2) A, A549 cells were cultured in DMEM plus 10% fetal bovine serum and penicillin/streptomycin with the indicated concentrations of glucose during 24 h. […] Lysates were cleared by centrifugation at 16,000×g for 5 min (4° C.) and the protein concentration of supernatants was determined (Bio-Rad). […]

[1] = test system: C2Cl2 mouse myoblasts differentiated to myotubes; test: Glucose concentration in media of C2Cl2 myotubes at physiological glucose (FIG. 3); format: cell-based; conditions: initial glucose 115 mg/dL, T12 50 μM, indicated times
Experimental: C2Cl2 mouse myoblasts were differentiated to myotubes in DMEM supplemented with 2% horse serum and penicillin/streptomycin during 10 days, and then incubated in DMEM plus 0.25% horse serum with an initial glucose concentration of 115 mg/dL, in absence or presence of T12 (50 μM) during the indicated times. Glucose concentrations in media were determined with a Glucocard™ G+ meter (Arkray Factory, Inc.). Shown are means±SEM (n=2). […] C2Cl2 mouse myoblasts were differentiated to myotubes in DMEM supplemented with 2% horse serum and penicillin/streptomycin during 10 days, and then incubated in DMEM plus 0.25% horse serum with an initial glucose concentration of 115 mg/dL, in absence or presence of T12 (50 μM) during the indicated times. Glucose concentrations in media were determined with a Glucocard™ G+ meter (Arkray Factory, Inc.). Shown are means±SEM (n=2).

[2] = test system: AS160 protein phosphorylated at Ser 318 (P Ser 318 AS160); test: Western blot for AS160 phosphorylated at Ser 318 in A549 lysates (FIG. 2C); format: cell-based; conditions: A549 cells, DMEM:F-12 (315 mg glucose/dL), T12 50 μM, 20 h
Experimental: as §1, §2

GPBP = biological target: T1, GPBP (Homo sapiens, UniProt Q9Y5P4); conditions: from WO 2004/070025, WO 2011/054530, U.S. Pat. No. 8,586,776, WO2014/006020; cited from earlier work
T1 sequence (Q9Y5P4 1-624): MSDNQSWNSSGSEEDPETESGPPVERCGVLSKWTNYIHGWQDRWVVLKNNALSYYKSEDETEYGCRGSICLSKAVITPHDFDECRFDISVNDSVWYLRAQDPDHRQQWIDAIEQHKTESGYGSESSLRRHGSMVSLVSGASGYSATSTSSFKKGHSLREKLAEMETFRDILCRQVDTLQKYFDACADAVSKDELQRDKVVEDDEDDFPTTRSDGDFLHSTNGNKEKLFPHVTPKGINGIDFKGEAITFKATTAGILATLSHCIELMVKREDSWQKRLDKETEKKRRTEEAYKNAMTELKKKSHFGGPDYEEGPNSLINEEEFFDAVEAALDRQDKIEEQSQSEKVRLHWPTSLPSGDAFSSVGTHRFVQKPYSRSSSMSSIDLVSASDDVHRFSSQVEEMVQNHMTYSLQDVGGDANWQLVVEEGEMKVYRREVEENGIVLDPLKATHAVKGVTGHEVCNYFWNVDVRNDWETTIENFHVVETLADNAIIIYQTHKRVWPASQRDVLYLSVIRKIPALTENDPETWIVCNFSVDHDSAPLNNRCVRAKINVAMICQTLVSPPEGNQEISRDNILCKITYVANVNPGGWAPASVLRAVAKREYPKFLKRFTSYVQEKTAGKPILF

Row | Molecule | glucose uptake (A549 cells) | extracellular glucose levels [1] | phosphorylation of AS160 (Ser 318) [2] | inhibition of GPBP kinase activity (GPBP)
1 | COc1ccc(-c2ccc(-c3cccc(C)c3)c(C)c2)c(CCC(=O)O)c1 [T12, 3-[4″-methoxy-3,2′-dimethyl-(1,1′;4′,1″)terphenyl-2″-yl]propionic acid] | progressively enhanced glucose uptake | reduced the extracellular glucose levels in a concentration-dependent manner | induced phosphorylation of AS160 | –
2 | COc1cccc2c1C(=O)c1c(O)c3c(c(O)c1C2=O)C[C@@](O)(C(=O)CO)C[C@@H]3O[C@H]1C[C@H](N)[C@H](O)[C@H](C)O1 [doxorubicin] | – | – | – | inhibit GPBP kinase activity
3 | Q2: isolated peptide representing 260SHCIE264 and flanking regions (LATLSHCIELMVKR) (SEQ ID NO: 8) | – | – | – | efficiently inhibited GPBP kinase activity
